ChEMBL document CHEMBL2424519, “DABCO-promoted one-pot synthesis of heteroaryl-substituted benzenes and their biological evaluation” (2013)
In brackets after ≈: the same amount, converted by molar mass. Activity calls are given as the source filed them. The calls are words filed in the database; no cut-off is given here.

Tests used:
Salmonella typhi [1] = test: Antibacterial activity against Salmonella typhi after 24 hrs by agar-diffusion technique; assay type: functional, Salmonella enterica subsp. enterica serovar Typhi; details: Salmonella enterica
Aspergillus niger [2] = test: Antifungal activity against Aspergillus niger at 10 mg/ml after 7 days by disc diffusion technique; assay type: functional; details: 168 h, read-out: IZ
Pseudomonas aeruginosa [3] = test: Antibacterial activity against Pseudomonas aeruginosa after 24 hrs by agar-diffusion technique; assay type: functional
Klebsiella pneumoniae [4] = test: Antibacterial activity against Klebsiella pneumoniae at 10 mg/ml after 24 hrs by agar-diffusion technique; assay type: functional; details: read-out: IZ
Escherichia coli [5] = test: Antibacterial activity against Escherichia coli at 10 mg/ml after 24 hrs by agar-diffusion technique; assay type: functional; details: read-out: IZ
Klebsiella pneumoniae [6] = test: Antibacterial activity against Klebsiella pneumoniae after 24 hrs by agar-diffusion technique; assay type: functional
Candida tropicalis [7] = test: Antifungal activity against Candida tropicalis at 10 mg/ml after 7 days by disc diffusion technique; assay type: functional; details: 168 h, read-out: IZ
Pseudomonas aeruginosa [8] = test: Antibacterial activity against Pseudomonas aeruginosa at 10 mg/ml after 24 hrs by agar-diffusion technique; assay type: functional; details: read-out: IZ
Candida albicans [9] = test: Antifungal activity against Candida albicans after 7 days by disc diffusion technique; assay type: functional; details: 168 h
Aspergillus flavus [10] = test: Antifungal activity against Aspergillus flavus after 7 days by disc diffusion technique; assay type: functional; details: 168 h
Salmonella typhi [11] = test: Antibacterial activity against Salmonella typhi at 10 mg/ml after 24 hrs by agar-diffusion technique; assay type: functional, Salmonella enterica subsp. enterica serovar Typhi; details: Salmonella enterica, read-out: IZ
Escherichia coli [12] = test: Antibacterial activity against Escherichia coli after 24 hrs by agar-diffusion technique; assay type: functional
[13] = test system: Mycobacterium tuberculosis; test: Antitubercular activity against Mycobacterium tuberculosis H37Rv at 1 ug/ml after 4 weeks by Lowenstein-Jensen medium method; assay type: functional, organism-based
Candida tropicalis [14] = test: Antifungal activity against Candida tropicalis after 7 days by disc diffusion technique; assay type: functional; details: 168 h
[15] = test system: Mycobacterium tuberculosis; test: Antitubercular activity against Mycobacterium tuberculosis H37Rv at 10 ug/ml after 4 weeks by Lowenstein-Jensen medium method; assay type: functional, organism-based
[16] = test system: Mycobacterium tuberculosis; test: Antitubercular activity against Mycobacterium tuberculosis H37Rv at 100 ug/ml after 4 weeks by Lowenstein-Jensen medium method; assay type: functional, organism-based
Aspergillus flavus [17] = test: Antifungal activity against Aspergillus flavus at 10 mg/ml after 7 days by disc diffusion technique; assay type: functional; details: 168 h, read-out: IZ
Aspergillus niger [18] = test: Antifungal activity against Aspergillus niger after 7 days by disc diffusion technique; assay type: functional; details: 168 h
Candida albicans [19] = test: Antifungal activity against Candida albicans at 10 mg/ml after 7 days by disc diffusion technique; assay type: functional; details: 168 h, read-out: IZ

Row | Structure (SMILES) | MIC (Salmonella typhi [1]) [µg/mL] | zone of inhibition at 10000 µg/mL (Aspergillus niger [2]) [mm] | MIC (Pseudomonas aeruginosa [3]) [µg/mL] | zone of inhibition at 10000 µg/mL (Klebsiella pneumoniae [4]) [mm] | zone of inhibition at 10000 µg/mL (Escherichia coli [5]) [mm] | MIC (Klebsiella pneumoniae [6]) [µg/mL] | zone of inhibition at 10000 µg/mL (Candida tropicalis [7]) [mm] | zone of inhibition at 10000 µg/mL (Pseudomonas aeruginosa [8]) [mm] | MIC (Candida albicans [9]) [µg/mL] | MIC (Aspergillus flavus [10]) [µg/mL] | zone of inhibition at 10000 µg/mL (Salmonella typhi [11]) [mm] | MIC (Escherichia coli [12]) [µg/mL] | Activity [13] | MIC (Candida tropicalis [14]) [µg/mL] | Activity [15] | Activity [16] | zone of inhibition at 10000 µg/mL (Aspergillus flavus [17]) [mm] | MIC (Aspergillus niger [18]) [µg/mL] | zone of inhibition at 10000 µg/mL (Candida albicans [19]) [mm]
1 | CCOC(=O)c1c(-c2ccc(OC)cc2)cc(-c2ccco2)c([N+](=O)[O-])c1N | 20 (≈ 52.3 µM) | 10 | 20 (≈ 52.3 µM) | 9 | 10 | 20 (≈ 52.3 µM) | 8 | 8 | 20 (≈ 52.3 µM) | 20 (≈ 52.3 µM) | 7 | 20 (≈ 52.3 µM) | Active | 20 (≈ 52.3 µM) | Active | Active | 9 | 20 (≈ 52.3 µM) | 7
2 | CCOC(=O)c1c(-c2ccc(OC)cc2)cc(-c2cccs2)c([N+](=O)[O-])c1N | 20 (≈ 50.2 µM) | 18 | 20 (≈ 50.2 µM) | 20 | 14 | 20 (≈ 50.2 µM) | 42 | 18 | 20 (≈ 50.2 µM) | 20 (≈ 50.2 µM) | 16 | 20 (≈ 50.2 µM) | Active | 20 (≈ 50.2 µM) | Active | Active | 14 | 20 (≈ 50.2 µM) | 16
3 | N#Cc1c(-c2ccccc2)cc(-c2cccs2)c([N+](=O)[O-])c1N | 20 (≈ 62.2 µM) | 15 | 20 (≈ 62.2 µM) | 8 | 12 | 20 (≈ 62.2 µM) | 21 | 10 | 20 (≈ 62.2 µM) | 20 (≈ 62.2 µM) | 9 | 20 (≈ 62.2 µM) | Active | 20 (≈ 62.2 µM) | Active | Active | 12 | 20 (≈ 62.2 µM) | 24
4 | CCOC(=O)c1c(-c2ccc(OC)cc2)cc(-c2ccc[nH]2)c([N+](=O)[O-])c1N | 20 (≈ 52.4 µM) | 10 | 20 (≈ 52.4 µM) | 16 | 10 | 20 (≈ 52.4 µM) | 10 | 12 | 20 (≈ 52.4 µM) | 20 (≈ 52.4 µM) | 14 | 20 (≈ 52.4 µM) | Active | 20 (≈ 52.4 µM) | Active | Active | 12 | 20 (≈ 52.4 µM) | 9
5 | O=C(O)c1cn(C2CC2)c2cc(N3CCNCC3)c(F)cc2c1=O [CIPROFLOXACIN] |  |  |  | 22 |  |  |  | 23 |  |  | 24 |  |  |  |  |  |  |  | 
6 | NC(=O)c1cnccn1 |  |  |  |  |  |  |  |  |  |  |  |  | Active |  | Active | Active |  |  | 
7 | Clc1ccccc1C(c1ccccc1)(c1ccccc1)n1ccnc1 [CLOTRIMAZOLE] |  | 23 |  |  |  |  | 21 |  |  |  |  |  |  |  |  |  | 19 |  | 20
8 | N#Cc1c(-c2ccccc2)cc(-c2ccco2)c([N+](=O)[O-])c1N | 20 (≈ 65.5 µM) | 8 | 20 (≈ 65.5 µM) | 12 | 17 | 20 (≈ 65.5 µM) | 8 | 14 | 20 (≈ 65.5 µM) | 20 (≈ 65.5 µM) | 16 | 20 (≈ 65.5 µM) | Active | 20 (≈ 65.5 µM) | Active | Active | 14 | 20 (≈ 65.5 µM) | 10
9 | N#Cc1c(-c2ccccc2)cc(-c2ccc[nH]2)c([N+](=O)[O-])c1N | 20 (≈ 65.7 µM) | 20 | 20 (≈ 65.7 µM) | 18 | 14 | 20 (≈ 65.7 µM) | 12 | 16 | 20 (≈ 65.7 µM) | 20 (≈ 65.7 µM) | 24 | 20 (≈ 65.7 µM) | Active | 20 (≈ 65.7 µM) | Active | Active | 16 | 20 (≈ 65.7 µM) | 18
